Assay results published in patent publication US12528786B2, “Plasma kallikrein inhibitors” (Merck Sharp & Dohme LLC, priority 2020, dated 2026).

Target: T1, Human plasma kallikrein (Homo sapiens, UniProt P03952)
T1 construct: yields a heavy chain (371 amino acids) and a light chain (248 amino acids); purchased Enzyme Research Laboratories
Experiment: Kallikrein Assay (fluorogenic substrate hydrolysis, AFC release)
Assay type: biochemical
Conditions: purified Human plasma kallikrein 0.5 nM; substrate Acetyl-K—P—R-AFC 100 mM; 50 mM HEPES pH 7.4
Procedure, shortened: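 Enzyme–inhibitor equilibrated before substrate dilution to ≤0.2 Km; human plasma kallikrein at 0.5 nM final, Acetyl-K-P-R-AFC substrate, HEPES pH 7.4 buffer with NaCl, CaCl2, PEG 8000, at room temperature or 37° C. Linear-phase fluorescence rate gives percent inhibition, four-parameter logistic IC50, then Cheng-Prusoff Ki.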

T1 sequence (P03952 391-638 limits assumed): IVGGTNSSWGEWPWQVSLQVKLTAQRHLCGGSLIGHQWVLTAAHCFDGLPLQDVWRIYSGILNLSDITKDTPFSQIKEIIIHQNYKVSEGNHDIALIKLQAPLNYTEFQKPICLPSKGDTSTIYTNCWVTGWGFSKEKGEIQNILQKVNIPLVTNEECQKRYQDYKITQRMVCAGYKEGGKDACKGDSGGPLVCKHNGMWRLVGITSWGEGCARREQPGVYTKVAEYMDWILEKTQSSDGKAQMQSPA
T1 sequence (P03952 20-390 partner limits assumed): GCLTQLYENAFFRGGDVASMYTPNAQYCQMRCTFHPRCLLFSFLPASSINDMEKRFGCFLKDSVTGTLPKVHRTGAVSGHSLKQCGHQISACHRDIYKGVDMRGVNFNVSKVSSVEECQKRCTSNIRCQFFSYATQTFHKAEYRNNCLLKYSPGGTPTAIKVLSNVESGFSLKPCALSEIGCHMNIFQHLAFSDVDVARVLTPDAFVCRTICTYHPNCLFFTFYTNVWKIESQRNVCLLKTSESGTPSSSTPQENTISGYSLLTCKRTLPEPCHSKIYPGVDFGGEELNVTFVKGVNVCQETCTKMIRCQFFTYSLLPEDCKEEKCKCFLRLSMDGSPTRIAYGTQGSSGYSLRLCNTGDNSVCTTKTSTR

Structure (SMILES) | IC50 [nM]
CC(c1ccc(N2C[C@H]3C[C@H]3C2=O)nc1)n1cc(C(=O)N[C@H]2C[C@@H](c3cc(Cl)ccc3C#N)C2)nn1 (single isomer, unassigned) [Example 57, N-((cis)-3-(5-chloro-2-cyanophenyl)cyclobutyl)-1-((R or S)-1-(6-((1R,5S)-2-oxo-3-azabicyclo[3.1.0]hexan-3-yl)pyridin-3-yl)ethyl)-1H-1,2,3-triazole-4-carboxamide] | 7.7
Cc1ccc(C#N)c([C@H]2C[C@@H](NC(=O)c3cn(C(C)c4cnc(N5C[C@H]6C[C@H]6C5=O)c(C)n4)nn3)C2)n1 (single isomer, unassigned) [Example 116, N-((cis)-3-(3-cyano-6-methylpyridin-2-yl)cyclobutyl)-1-((S or R)-1-(6-methyl-5-((1R,5S)-2-oxo-3-azabicyclo[3.1.0]hexan-3-yl)pyrazin-2-yl)ethyl)-1H-1,2,3-triazole-4-carboxamide] | 6.9
Cc1ccc(C#N)c([C@H]2C[C@@H](NC(=O)c3cn(C(C)c4cnc(N5C[C@H]6C[C@H]6C5=O)c(C)n4)nn3)C2)n1 (single isomer, unassigned) [Example 115, N-((cis)-3-(3-cyano-6-methylpyridin-2-yl)cyclobutyl)-1-((R or S)-1-(6-methyl-5-((1R,5S)-2-oxo-3-azabicyclo[3.1.0]hexan-3-yl)pyrazin-2-yl)ethyl)-1H-1,2,3-triazole-4-carboxamide] | 22.4
Cc1ccc(C#N)c([C@H]2C[C@@H](NC(=O)c3cnn(C(C)c4cnc(N5C[C@H]6C[C@H]6C5=O)c(C)n4)c3)C2)n1 (single isomer, unassigned) [Example 52, N-((cis)-3-(3-cyano-6-methylpyridin-2-yl)cyclobutyl)-1-((S or R)-1-(6-methyl-5-((1R,5S)-2-oxo-3-azabicyclo[3.1.0]hexan-3-yl)pyrazin-2-yl)ethyl)-1H-pyrazole-4-carboxamide] | 10.1
Cc1cc(C(C)n2cc(C(=O)N[C@H]3C[C@@H](c4cc(Cl)ccc4C#N)C3)cn2)nnc1N1C[C@H]2C[C@H]2C1=O (single isomer, unassigned) [Example 31, N-((cis)-3-(5-chloro-2-cyanophenyl)cyclobutyl)-1-((S or R)-1-(5-methyl-6-((1R,5S)-2-oxo-3-azabicyclo[3.1.0]hexan-3-yl)pyridazin-3-yl)ethyl)-1H-pyrazole-4-carboxamide] | 7.3
Cc1ncc(C(C)n2cc(C(=O)N[C@H]3C[C@@H](c4cc(Cl)ccc4C#N)C3)nn2)cc1N1C[C@H]2C[C@H]2C1=O (single isomer, unassigned) [Example 140, N-((cis)-3-(5-chloro-2-cyanophenyl)cyclobutyl)-1-((S or R)-1-(6-methyl-5-((1R,5S)-2-oxo-3-azabicyclo[3.1.0]hexan-3-yl)pyridin-3-yl)ethyl)-1H-1,2,3-triazole-4-carboxamide] | 11.3
Cc1ccc(C#N)c([C@H]2C[C@@H](NC(=O)c3cn(C(C)c4cnc(N5C[C@H]6C[C@H]6C5=O)c(F)c4C)nn3)C2)n1 (single isomer, unassigned) [Example 135, N-((cis)-3-(3-cyano-6-methylpyridin-2-yl)cyclobutyl)-1-((R or S)-1-(5-fluoro-4-methyl-6-((1R,5S)-2-oxo-3-azabicyclo[3.1.0]hexan-3-yl)pyridin-3-yl)ethyl)-1H-1,2,3-triazole-4-carboxamide] | 80
Cc1cc(N2C[C@H]3C[C@H]3C2=O)nnc1C(C)n1cc(C(=O)N[C@H]2C[C@@H](c3cc(Cl)ccc3C#N)C2)cn1 (single isomer, unassigned) [Example 48, N-((cis)-3-(5-chloro-2-cyanophenyl)cyclobutyl)-1-((S or R)-1-(4-methyl-6-((1R,5S)-2-oxo-3-azabicyclo[3.1.0]hexan-3-yl)pyridazin-3-yl)ethyl)-1H-pyrazole-4-carboxamide] | 127
N#Cc1ccc(Cl)cc1[C@H]1C[C@@H](NC(=O)c2cnn(Cc3cnc(N4C[C@H]5C[C@H]5C4=O)nc3)c2)C1 [Example 2, N-((cis)-3-(5-chloro-2-cyanophenyl)cyclobutyl)-1-((2-((1R,5S)-2-oxo-3-azabicyclo[3.1.0]hexan-3-yl)pyrimidin-5-yl)methyl)-1H-pyrazole-4-carboxamide] | 10.6
Cc1nc(N2C[C@H]3C[C@H]3C2=O)ccc1C(C)n1cc(C(=O)N[C@H]2C[C@@H](c3cc(Cl)ccc3C#N)C2)nn1 (single isomer, unassigned) [Example 95, N-((cis)-3-(5-chloro-2-cyanophenyl)cyclobutyl)-1-((S or R)-1-(2-methyl-6-((1R,5S)-2-oxo-3-azabicyclo[3.1.0]hexan-3-yl)pyridin-3-yl)ethyl)-1H-1,2,3-triazole-4-carboxamide] | 10.7

Further lines, results first:

IC50 [nM] | Structure (SMILES)
0.7 | Cc1cc(N2C[C@H]3C[C@H]3C2=O)ncc1Cn1cc(C(=O)N[C@H]2C[C@@H](c3cc(Cl)ccc3C#N)C2)cn1 [Example 37, N-((cis)-3-(5-chloro-2-cyanophenyl)cyclobutyl)-1-((4-methyl-6-((1R,5S)-2-oxo-3-azabicyclo[3.1.0]hexan-3-yl)pyridin-3-yl)methyl)-1H-pyrazole-4-carboxamide]
1.1 | Cc1c([C@@H](C)n2cc(C(=O)NC3CC(c4cc(Cl)ccc4C#N)C3)nn2)cnc(N2C[C@H]3C[C@H]3C2=O)c1O (single isomer, unassigned) [Example 163]
2.4 | Cc1cc(C(C)n2cc(C(=O)N[C@H]3C[C@@H](c4cc(Cl)ccc4C#N)C3)cn2)nnc1N1C[C@H]2C[C@H]2C1=O (single isomer, unassigned) [Example 30, N-((cis)-3-(5-chloro-2-cyanophenyl)cyclobutyl)-1-((R or S)-1-(5-methyl-6-((1R,5S)-2-oxo-3-azabicyclo[3.1.0]hexan-3-yl)pyridazin-3-yl)ethyl)-1H-pyrazole-4-carboxamide]
0.7 | Cc1cc(N2C[C@H]3C[C@H]3C2=O)ncc1[C@@H](C)n1cc(C(=O)NC2CC(c3cc(Cl)ccc3C#N)C2)c(C(C)O)n1 (single isomer, unassigned) [Example 170]
6.7 | Cc1nn(C(C)c2cnc(N3C[C@H]4C[C@H]4C3=O)nc2)cc1C(=O)N[C@H]1C[C@@H](c2cc(Cl)ccc2C#N)C1 (single isomer, unassigned) [Example 16, N-((cis)-3-(5-chloro-2-cyanophenyl)cyclobutyl)-3-methyl-1-((S or R)-1-(2-((1R,5S)-2-oxo-3-azabicyclo[3.1.0]hexan-3-yl)pyrimidin-5-yl)ethyl)-1H-pyrazole-4-carboxamide]
0.2 | Cc1ccc(C#N)c([C@H]2C[C@@H](NC(=O)c3cnn(C(C)c4cnc(N5C[C@H]6C[C@H]6C5=O)c(C)c4C)c3)C2)c1 (single isomer, unassigned) [Example 45, N-((cis)-3-(2-cyano-5-methylphenyl)cyclobutyl)-1-((R or S)-1-(4,5-dimethyl-6-((1R,5S)-2-oxo-3-azabicyclo[3.1.0]hexan-3-yl)pyridin-3-yl)ethyl)-1H-pyrazole-4-carboxamide]
1.1 | Cc1ccc(C#N)c([C@H]2C[C@@H](NC(=O)c3cnn(C(C)c4cnc(N5C[C@H]6C[C@H]6C5=O)cc4C)c3)C2)c1 (single isomer, unassigned) [Example 36, N-((cis)-3-(2-cyano-5-methylphenyl)cyclobutyl)-1-((R or S)-1-(4-methyl-6-((1R,5S)-2-oxo-3-azabicyclo[3.1.0]hexan-3-yl)pyridin-3-yl)ethyl)-1H-pyrazole-4-carboxamide]
0.7 | [2H]C1(NC(=O)c2cn([C@@H](C)c3cnc(N4C[C@H]5C[C@H]5C4=O)cc3C)nn2)CC(C)(c2cc(Cl)ccc2C#N)C1 (single isomer, unassigned) [Example 146, N-((trans or cis)-3-(5-chloro-2-cyanophenyl)-3-methylcyclobutyl-1-d)-1-((S)-1-(4-methyl-6-((1R,5S)-2-oxo-3-azabicyclo[3.1.0]hexan-3-yl)pyridin-3-yl)ethyl)-1H-1,2,3-triazole-4-carboxamide]
0.2 | Cc1ccc(C#N)c([C@]2(C)C[C@H](NC(=O)c3cn([C@@H](C)c4cnc(N5C[C@H]6C[C@H]6C5=O)c(C)c4C)nn3)C2)c1 [Example 143, N-((cis)-3-(2-cyano-5-methylphenyl)-3-methylcyclobutyl)-1-((S)-1-(4,5-dimethyl-6-((1R,5S)-2-oxo-3-azabicyclo[3.1.0]hexan-3-yl)pyridin-3-yl)ethyl)-1H-1,2,3-triazole-4-carboxamide]
4.4 | Cc1c(C(C)n2cc(C(=O)N[C@H]3C[C@@H](c4cc(Cl)ccc4C#N)C3)nn2)cnc(N2C[C@H]3C[C@H]3C2=O)c1F (single isomer, unassigned) [Example 97, N-((cis)-3-(5-chloro-2-cyanophenyl)cyclobutyl)-1-((S or R)-1-(5-fluoro-4-methyl-6-((1R,5S)-2-oxo-3-azabicyclo[3.1.0]hexan-3-yl)pyridin-3-yl)ethyl)-1H-1,2,3-triazole-4-carboxamide]
6.7 | CC(c1cnc(N2C[C@H]3C[C@H]3C2=O)nc1)n1cc(C(=O)N[C@H]2C[C@@H](c3cc(Cl)ccc3C#N)C2)cn1 (single isomer, unassigned) [Example 3, N-((cis)-3-(5-chloro-2-cyanophenyl)cyclobutyl)-1-((R or S)-1-(2-((1R,5S)-2-oxo-3-azabicyclo[3.1.0]hexan-3-yl)pyrimidin-5-yl)ethyl)-1H-pyrazole-4-carboxamide]
1.8 | COc1c(N2C[C@H]3C[C@H]3C2=O)ncc(C(C)n2cc(C(=O)N[C@H]3C[C@@H](c4cc(Cl)ccc4C#N)C3)cn2)c1C (single isomer, unassigned) [Example 43, N-((cis)-3-(5-chloro-2-cyanophenyl)cyclobutyl)-1-((R or S)-1-(5-methoxy-4-methyl-6-((1R,5S)-2-oxo-3-azabicyclo[3.1.0]hexan-3-yl)pyridin-3-yl)ethyl)-1H-pyrazole-4-carboxamide]
0.7 | Cc1cc([C@@](C)(O)c2cc(C(=O)N[C@H]3C[C@@H](c4cc(Cl)ccc4C#N)C3)no2)cnc1N1C[C@H]2C[C@H]2C1=O (single isomer, unassigned) [Example 156]
